Holding throughout (experiment): growth of human tumour cells (NCI), 48 h
Assay [1] deals with HT29 colon.
Assay [2] has as its system EKVX NSCLC.
For assay [3], the system named is 786-0 renal.
Assay [4] relates to UACC-257 melanoma.
Assay [5] relates to SNB-78 CNS.
The test system of assay [6] is ACHN renal.
Assay [7] relates to SK-MEL-2 melanoma.
The test system of assay [8] is LOX IMVI melanoma.
The subject of assay [9] is OVCAR-5 ovarian.
The test system of assay [10] is DMS 273 small cell lung.

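In this assay, cells in 96-well plates receive the compound at five concentrations for 48 hours. Endpoints are linearly interpolated between the surrounding concentrations. Abbreviation: GI50, concentration required for 50% inhibition of growth. At the TGI there is no net growth.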

With `COC(=O)C(=O)C(C(C)=O)C(=O)NCc1ccc(OC)c(OC)c1` (stereo not given), the TGI in [1], in assay [2], in assay [3], in [4], in assay [5] and in assay [6] was greater than 100 µM throughout. The TGI in assay [7], in assay [8], in assay [9] and in assay [10] was greater than 100 µM throughout.

In the case of `O=C(CC(=O)C1CCOC1=O)C(=O)Nc1cccc(Cl)c1` (stereo not given), the TGI in [1], in assay [2], in assay [3], in [4], in assay [5] and in assay [6] was greater than 100 µM throughout. The TGI in assay [7], in [8], in [9] and in assay [10] was greater than 100 µM throughout.

Consider `CCC1CN2CCc3cc(OC)c(OC)cc3C2CC1CC1c2cc(OC)c(OC)cc2CCN1C(=O)C1CCCN1` (stereo not given), for which the TGI in assay [1] was greater than 100 µM; in assay [2] it was greater than 100 µM; in [3], 54.8 µM; in assay [4] it was 41 µM; in [5], greater than 100 µM; in [6], greater than 100 µM. Further, the TGI was 68.7 µM in [7], 72.4 µM in assay [8], greater than 100 µM in assay [9] and greater than 100 µM in [10].

As for `CCOC(=O)NC(=O)c1cn(C(CC)COC(=O)NCCCCCCNC(=O)OCC(CC)n2cc(C(=O)NC(=O)OCC)c(=O)[nH]c2=O)c(=O)[nH]c1=O` (stereo not given), the TGI in [1], in assay [2], in assay [3], in [4], in assay [5] and in [6] was greater than 100 µM throughout. The TGI in [7], in assay [8] and in [10] was greater than 100 µM in each case.

In the case of `COC(=O)/C(=N/O)C(C(=O)C=C(C)C)C(=O)C(=O)Nc1nc2ccc([N+](=O)[O-])cc2s1` (stereo not given), the TGI in assay [1] was greater than 100 µM; in assay [2], 57.8 µM; in assay [3], greater than 100 µM; in assay [4], greater than 100 µM; in assay [5], greater than 100 µM; in [6] it was 67.1 µM. Moreover, the TGI was 71.9 µM in assay [7], 93.1 µM in assay [8], greater than 100 µM in [9] and greater than 100 µM in [10].

As to `Cn1c(=O)nc2n(-c3cc(C(F)(F)F)cc(C(F)(F)F)c3)c3ccccc3nc-2c1=O`, the TGI in assay [1], in assay [2], in assay [3], in assay [4], in assay [5] and in [6] was greater than 100 µM throughout. For the same molecule, the TGI in assay [7], in assay [8], in assay [9] and in assay [10] was greater than 100 µM each time.

Consider `CC(C(=O)c1ccc(Cl)cc1)/C(=N/NC(=O)NN)C(=O)Nc1cccc(C(F)(F)F)c1` (stereo not given), for which the TGI in assay [1], in [2], in [3], in assay [4], in assay [5] and in assay [6] was greater than 100 µM in each case. The TGI in assay [7], in [8], in assay [9] and in assay [10] was greater than 100 µM each time.

Consider `O=C(N/C(=C\c1ccc([N+](=O)[O-])cc1)c1nc2ccccc2[nH]1)c1ccccc1`, for which the TGI in assay [1], in [2], in [3], in assay [4], in assay [5] and in assay [6] was greater than 100 µM each time. Moreover, the TGI in assay [7] and in assay [9] was greater than 100 µM throughout.

`CC(=O)N1CCN(c2ccc(OCC3COC(Cn4ccnc4)(c4ccc(Cl)cc4Cl)O3)cc2)CC1` (stereo not given): the TGI is 43.9 µM in [1]; greater than 100 µM in [3]; 51.1 µM in [4]; greater than 100 µM in assay [6]; 39.1 µM in assay [7]; 36 µM in assay [8]. Further, the TGI was greater than 100 µM in assay [9] and 61.4 µM in assay [10].

For `CC(C)CCC[C@@H](C)C1CCC2[C@@H]3CC=C4C[C@@H](C(=O)NCCN(C)C)CC[C@]4(C)C3CC[C@@]21C` (stereo not given in full), the TGI is greater than 100 µM in [1]; greater than 100 µM in assay [2]; 43.2 µM in assay [3]; 77.1 µM in assay [4]; greater than 100 µM in [5]; greater than 100 µM in assay [6]. Besides, the TGI in assay [7] was 23.6 µM; in [8], greater than 100 µM; in [9], greater than 100 µM; in assay [10], greater than 100 µM.

Consider `Cc1ccc(C)c(N2C/C(=N\NC(=O)CC#N)C(c3nc4ccccc4s3)C(=O)C2=O)c1` (stereo not given), for which the TGI in [1], in assay [2], in [3], in [4], in [5] and in assay [6] was greater than 100 µM each time. Besides, the TGI in assay [7] and in assay [10] was greater than 100 µM each time.

Regarding `COc1c(C)n(CCO)ccc1=O`, the TGI in assay [1], in assay [2], in assay [3], in assay [4], in [5] and in assay [6] was greater than 100 µM throughout. The TGI in assay [7], in [8], in assay [9] and in [10] was greater than 100 µM each time.

For `COc1cccc(/C=N/[N-]C(=O)c2ccncc2)c1[O-].COc1cccc(/C=N/[N-]C(=O)c2ccncc2)c1[O-].[O]=[U](=[O])([OH2+])[OH2+]`, the GI50 in assay [1] was 30.7 µM; in assay [2], 2.86 µM; in [3] it was 4.37 µM; in assay [4] it was 4.73 µM; in assay [5], greater than 87.7 µM; in assay [6], 3.79 µM. For the same molecule, the GI50 in [7] is 19.8 µM; in [8] it was 4.94 µM; in [9], 6.79 µM; in assay [10], 4.2 µM. Moreover, the TGI in assay [1] was greater than 100 µM; in [2] it was greater than 100 µM; in assay [3], 48.6 µM; in [4], greater than 54.4 µM; in [5], greater than 100 µM; in [6], 27.7 µM. Moreover, the TGI in [7] was greater than 74 µM; in assay [8], greater than 100 µM; in assay [9], greater than 100 µM; in assay [10], greater than 56.6 µM.

Regarding `CC(C)(C)c1ccc2c(c1)S(=O)(=O)Nc1ccc(Cl)cc1NS(=O)(=O)c1cc(C(C)(C)C)ccc1OCCOCCOCCO2`, the TGI in assay [1], in [2], in assay [3], in assay [4], in assay [5] and in [6] was greater than 100 µM throughout. In addition, the TGI in [7], in assay [8], in assay [9] and in assay [10] was greater than 100 µM in each case.

On to `CCOC(=O)NC(=O)c1cn(C2CCCCC2)c(=O)[nH]c1=O`, for which the TGI in assay [1], in [2], in assay [3], in assay [4], in assay [5] and in assay [6] was greater than 100 µM each time. The TGI in assay [7], in assay [8], in [9] and in [10] was greater than 100 µM in each case.

As to `CO[C@H]1Nc2c(ccc(C)c2O)C(=O)N2C=C(/C=C/C(N)=O)C[C@@H]12`, the TGI in assay [1] is 1.51 µM; in assay [2], 1.03 µM; in assay [3] it was 2.03 µM; in assay [4], 0.134 µM; in [5], 18.4 µM; in assay [7] it was 0.0223 µM. Moreover, the TGI came out at 1.29 µM in assay [8], 5.45 µM in assay [9] and 0.118 µM in assay [10].

`Nc1c(-c2ccccc2-c2c(N)[n+]([O-])c3ccccc3[n+]2[O-])[n+]([O-])c2ccccc2[n+]1[O-]`: the TGI in [1] is greater than 100 µM; in assay [2], 57.1 µM; in assay [3], greater than 100 µM; in assay [4], 35.2 µM; in assay [5], greater than 100 µM; in assay [6], greater than 100 µM. Also, the TGI in assay [7] was greater than 100 µM; in [8], greater than 100 µM; in assay [9] it was greater than 100 µM; in assay [10], 38.7 µM.

As for `O=[N+]([O-])c1cccc(C2=NOC(C3CCCCC3)C2)c1` (stereo not given), the TGI in assay [1], in assay [3], in assay [4], in assay [5], in assay [6] and in [7] was greater than 100 µM in each case. The TGI in [9] and in assay [10] was greater than 100 µM in each case.

Consider `CCOP(=O)(OCC)C(C(=O)OC)C(=O)C(=O)Nc1ccc(Cl)cc1Cl` (stereo not given), for which the TGI in assay [1], in [2], in [3], in assay [4], in assay [5] and in assay [6] was greater than 100 µM throughout. The TGI in assay [7], in assay [8], in [9] and in assay [10] was greater than 100 µM in each case.

As for `Nc1ccccc1C(=O)/C=C/c1c(O)ccc2ccccc12`, the TGI in assay [1], in [2], in assay [3], in [4], in assay [5] and in assay [6] was greater than 100 µM throughout. For the same molecule, the TGI was greater than 100 µM in [7], 44.9 µM in assay [8], greater than 100 µM in assay [9] and greater than 100 µM in [10].

Take `Nc1ccccc1O.O.O=C(O)C1[O][Sb][O]C1C(=O)O` (stereo not given): the GI50 in assay [1] is 16.4 µM; in [2], 18.1 µM; in [3] it was 10.5 µM; in assay [4] it was 14.1 µM; in assay [6] it was 16.1 µM; in [7] it was 15 µM. The GI50 in assay [8] was 8.59 µM; in assay [9], 18.4 µM. In addition, the TGI in assay [1] is greater than 56.2 µM; in [2], 38.9 µM; in assay [3], 26 µM; in assay [4], 28 µM; in assay [6] it was 29.8 µM; in assay [7] it was 32.1 µM. Also, the TGI in [8] is 29.9 µM; in assay [9] it was 38.5 µM.

Take `C#CCOc1cccc(Nc2ncnc3c(NC(=O)C=C)cccc23)c1`: the GI50 is 19.3 µM in assay [1]; 28.3 µM in assay [2]; 19.1 µM in assay [3]; 31.4 µM in assay [4]; 17.8 µM in assay [6]; 19.8 µM in assay [7]. The GI50 in [8] is 15.7 µM; in [9], 27.6 µM. Also, the TGI in assay [1] was 98.8 µM; in [2], greater than 100 µM; in assay [3] it was 52.7 µM; in assay [4], greater than 100 µM; in assay [6], 63.4 µM; in [7] it was 63.7 µM. For the same molecule, the TGI was 46.4 µM in assay [8] and greater than 100 µM in [9].

On to `CC1=C(C#N)C(=O)CC(c2ccc(Cl)cc2)N(C)N1` (stereo not given), for which the TGI in assay [1], in assay [3], in assay [4], in assay [5], in [6] and in assay [7] was greater than 100 µM throughout. The TGI in assay [8] and in assay [9] was greater than 100 µM each time.

In the case of `CCCC/C(=C\C1=C(C)C(=O)C(OC)=C(OC)C1=O)C(=O)O`, the GI50 in assay [1], in assay [2], in assay [3], in [4], in assay [6] and in [7] was greater than 100 µM throughout. Moreover, the GI50 in assay [8] and in assay [9] was greater than 100 µM in each case. Moreover, the TGI in assay [1], in assay [2], in [3], in assay [4], in assay [6] and in [7] was greater than 100 µM throughout. Further, the TGI in assay [8] and in assay [9] was greater than 100 µM in each case.

`CCN1c2ccccc2-c2c3c1cc(C)cc3c1ccccc1[n+]2CC`: the TGI in [1] was 3.92 µM; in assay [3], 4.22 µM; in [4], 1.65 µM; in assay [5], 12 µM; in [6], 8.95 µM; in assay [7], 4.29 µM. Also, the TGI in assay [8] is 1.89 µM; in assay [9], 4.1 µM; in assay [10], 1.58 µM.

For the origin of these results see PubChem BioAssay (NCI).
